# Laboratory results taken from patent EP0409999A1, “LIQUID PREPARATION FOR INTRAOCULAR PERFUSION” (Senju Pharmaceutical Co., Ltd., priority 1989, dated 1990).
# Tested on: corneal endothelial cell monolayer
# Experiment: Corneal endothelial barrier function: CF permeation through cultured corneal endothelial cell monolayer on permeable collagen membrane
# Type: cell-based, male white rabbits
# Settings: result in words; effect grows with increasing concentration of substance (I) in the test solution
# Method: The eyeballs of male white rabbits were enucleated and in a culture medium prepared by adding 10 % fetal calf serum to Dulbecco's Modified MEM (trademark: Dulbecco's Modified Eagle Medium "Nissui" 2, Nissui Pharmaceutical), (hereinafter referred to as DMEM), the cornea was cut out along the corneosclerai limbus with a pair of scissors. From each of the isolated corneal specimens (8 eyes), the endothelium with Descemet's membrane was peeled off, shorn into small pieces, and seeded with about 5 ml of DMEM in a 75 cm^2 culture flask (trademark: Nunclon Tissue Culture Flask 147589; manufactured by Nunc). After adhesion of the cells to the bottom of the flask, about 20 ml of DMEM was added and the cells were cultured for about 7 days until the growth on the internal wall of the flask became confluent. During this period, the medium was replaced with fresh one every 3 days. After completion of culture, the cells were digested with 5 ml of EDTA- trypsin (a phosphate buffer containing 0.01 % of EDTA and 0.125 % of trypsin and not containing calcium or magnesium ion) and, then, mixed with a sufficient quantity of DMEM to terminate the digestion. The digest was centrifuged at 1000 rpm for 2 minutes and the cells were then collected. The harvested cells were re-suspended in DMEM and filtered through a […] nylon filter to remove Descemet's membrane, leaving an exclusive suspension of cells. […]
smiles,measurement,value
O=C1O[C@H]([C@@H](O)CO)C(O)=C1OP(=O)(O)O [substance (I)],permeation of CF through the cultured corneal endothelial cell monolayer,inhibits the permeation of CF
